Measured values taken from patent US20050208088A1, “Pesticidal composition and method for pest control” (priority 2004, published 2005).

Tested on: thrips
Experiment: Thrips control in cotton, seed treatment field trials (1) and (2)
Format: in vivo, thrips on cotton
Details: for Adult Thrips 14 DAP / Immature Thrips 14 DAP / Immature Thrips 21 DAP: cotton DP 555 BR, seed treatment; for Adult Thrips 14 DAP / Immature Thrips 14 DAP: 14 days after planting; for Adult Thrips 14 DAP: number of adult thrips; for Immature Thrips 14 DAP / Immature Thrips 21 DAP: number of immature thrips; for Immature Thrips 21 DAP / Damage 21 DAP: 21 days after planting; for Damage 21 DAP: visual plant damage rating, scale 1 to 5 (1=no damage, 3=moderate damage, 5=severe damage)
Description: (a) A base fungicide seed treatment formulation is prepared by diluting a concentrate containing 3.32% mefenoxam (CAS# 70630-17-0), 1.11% fludioxonil (CAS# 131341-86-1) and 6.64% azoxystrobin (CAS# 131860-33-8), into water as a carrier. […] Seed treated are allowed to air dry and shipped and stored at ambient temperature prior to planting (approximately two weeks). (b) A seed treatment formulation is prepared by diluting Cruiser® […] seed treatment insecticide (Syngenta Crop Protection, Inc), which contains 49% thiamethoxam and the base fungicide concentrate described in (a), into water as a carrier. […] Seed treated are allowed to air dry and shipped and stored at ambient temperature prior to planting (approximately two weeks). (c) An abamectin seed treatment formulation is prepared by diluting an abamectin […] seed treatment nematicide formulation containing 46.3% abamectin and the base fungicide concentrate (a), into water as a carrier. […] Seed treated were allowed to air dry and were shipped and stored at ambient temperature prior to planting (approximately two weeks). The above formulations of thiamethoxam and abamectin were combined together into water as a carrier and with the base fungicide (a). […] This formulation dilution was applied for one to two minutes at ambient temperature to approximately one kilogram of Delta and Pine Land cottonseed (DP 555 BR) in a Hege seed treater. Seed treated were allowed to air dry and were shipped and stored at ambient temperature prior to planting (approximately two weeks). Control (a) and treated cottonseed (b) (c) and (d) were planted in field plots in two separate trials (1) and (2) as follows: Cottonseed is sown (4 seeds per foot) in plots with dimensions of 2 rows (36 inch row spacing) by 30-feet in a randomized complete block layout consisting of an control check (a), abamectin plus a base fungicide (c), thiamethoxam plus a base fungicide (b) and the combination of thiamethoxam and abamectin plus a base fungicide (d). […] Thrips were collected from five random plants within each replication of each treatment by collecting thrips in alcohol and counting the numbers of thrips using a dissecting scope in the laboratory.

| Compound | thrips control (14 and 21 days after planting, cotton seed treatment) | Adult Thrips 14 DAP (Trial (1)) [per five plants] | Immature Thrips 14 DAP (Trial (1)) [per five plants] | Immature Thrips 21 DAP (Trial (1)) [per five plants] | Damage 21 DAP (Trial (1)) | Immature Thrips 14 DAP (Trial (2)) [per five plants] | thrips control compared to the untreated check (trials 1 and 2, cotton seed treatment) [%] |
| --- | --- | --- | --- | --- | --- | --- | --- |
| CN1COCN(Cc2cnc(Cl)s2)/C1=N\[N+](=O)[O-] [Thiamethoxam (b), thiamethoxam] | approximately 85% | 5 | 13 | 20.25 | 3.3 | 15 | – |
| abamectin [Abamectin (c)] | – | 13 | 39.25 | 50.5 | 4 | 71.5 | ~50 |
